In ChEMBL document CHEMBL1123627, “Effect of beta-alkyl substitution on D-1 dopamine agonist activity: absolute configuration of beta-methyldopamine” (1987) one finds Stimulation data, which are given here for five compounds.

Assay type in all cases: functional
The species named for assay [1] is Rattus norvegicus. The assay is described as follows: Ability to stimulate the production of cyclic AMP by rat retinal adenylate cyclase at a concentration of 1 uM.
The species named for assay [2] is Rattus norvegicus. The assay is described as follows: Ability to stimulate the production of cyclic AMP by rat retinal adenylate cyclase at a concentration of 10 uM.
Assay [3] is filed under the species Rattus norvegicus. The assay is described as follows: Ability to stimulate the production of cyclic AMP by rat retinal adenylate cyclase at a concentration of 0.1 uM.

With `C[C@H](CN)c1ccc(O)c(O)c1`, the Stimulation was 11.7% in assay [1], 39.1% in assay [2] and 1.6% in assay [3].

As to `NCC(c1ccccc1)c1ccc(O)c(O)c1` (stereo not given), the Stimulation in assay [1] was found to be 16.3%; in assay [2], 97.1%; in assay [3], 4.9%.

For `CC(CN)c1ccc(O)c(O)c1` (racemic), the Stimulation is listed as -3.5% in assay [1], 10.5% in assay [2] and 5.9% in assay [3].

For the compound `CC(CN)c1ccc(O)c(O)c1` (single isomer, unassigned), the Stimulation in assay [1] amounted to 6%; in assay [2], 41%; in assay [3], 1.5%.

`NCCc1ccc(O)c(O)c1` [DOPAMINE]: the figures for the Stimulation in assay [1], in assay [2] and in assay [3] were 106.4%, 205.4% and 31.4%, respectively.
